Results published in patent US20240060131A1, “METHOD FOR IDENTIFYING AND/OR REGULATING SENESCENCE” (INSTITUTE OF ZOOLOGY, CHINESE ACADEMY OF SCIENCES, priority 2020, published 2024).
“Also recorded” adds a separate entry of the source.

Columns and labels:
Type in all cases: cell-based, human
HERVK-LTR5HS = test: ChIP-qPCR of 5 mC occupation in HERVK-LTR5HS in treated hMPCs; settings: hMPCs of early passage; vs cells not treated
Experimental: (§1) For 5-azacytidine (5-AZA) treatment, hMPCs were seeded (generation 0 (P0) after treatment), and treated by […] 5-AZA for 4 days, followed by passage and culture in fresh medium. At P2 after treatment (6 days after 5-AZA treatment), cells was used for Ki67 immunofluorescence, SA-O-gal staining and RNA/DNA extraction.
Cells were fixed in 1% formaldehyde dissolved in PBS at room temperature for 10 min, and then, quenched by 125 mM glycine. Cells were lysed on ice for 10 min, and subjected to ultrasonic treatment with Covaris S220. Collected supernatant was incubated with Dynabeads Protein A (Life Technologies, 10001D) pre-mixed with 2.3 μg specified antibody at 4° C. overnight. After washing, samples were digested by Protease K (New England Biolabs), eluted and cross-link-reversed on thermal mixer at 68° C. for 2 h. DNA was extracted with phenol-chloroform-isoamylol, and eluted DNA was analyzed by qPCR.
5-AZA (a DNA methyltransferase inhibitor (DNMTi)) was used to treat hMPCs of early passage. ChIP-qPCR and RT-qPCR analyses were performed on treated cells, cells not treated by 5-AZA were used as control.

cGAS-STING pathway = test: cGAS-STING innate immune pathway and SASP in hMPCs (Western blot, RT-qPCR); settings: hMPCs with activated endogenous HERVK
Experimental: (§2) Cells were lysed in 1×SDS buffer (100 mM Tris-HCl, pH 6.8, 10% glycerol, 2% SDS and 2%2-mercaptoethanol), boiled for 10 min at 105° C. Protein concentration was measured by BCA kit. Cell lysate was subjected to SDS-PAGE electrophoresis, then transferred to PVDF membrane (Millipore). The membrane was incubated with primary antibody, incubated with secondary antibody conjugated to HRP after washing, then blotted with substrate, the substrate was the mixture of 1000 μL substrate A and 3 μL substrate B (substrate A: 0.2 mM cumaric acid, 1.25 mM luminal, 0.1 M Tris-HCl, pH 8.5; substrate B: 3% H2O2) or Super Signal West Femto Maximum Sensitivity Substrate (Thermo Fisher Scientific). Images were taken by Image Lab software. Quantification was conducted by ImageJ.
(§3) In accordance with the manufacturer's instructions, total RNA of cell was extracted by TRIzol (Thermo Fisher Scientific); reverse transcribed into cDNA with GoScript reverse transcription system (Promega) for RT-qPCR; RT-qPCR was conducted with THUNDERBIRD qPCR Mix (TOYOBO) and CFX384 real-time system (Bio-Rad Laboratories, Inc.).
To further study the activation of cGAS-STING DNA sensing pathway, the following key characteristics in different senescent hMPCs (including RS, HGPS and WS) and fibroblasts were detected: […] TANK binding kinase 1 (TBK1) and IFN regulating factor 3 (IRF3) as well as proinflammatory cytokines (e.g., IL1B andIL6), these factors were regarded as SASP factors.

HERVK = test: RT-qPCR and Western blot of HERVK and senescence markers in hMPCs after HERVK activation or 5-AZA treatment; settings: RT-qPCR
Experimental: as §2, §3
To activate endogenous HERVK, non-targeted control or lentivirus construct with HERVK LTR targeted sgRNA was cloned to lenti-SAM v2 (addgene #75112) through ESP3I site, and co-transfected with lenti-MPH v2 (addgene #89308). […]
HERVK-activated cell was analyzed by RT-qPCR and Western blot. […]

hMPCs = test: Analysis of classical aging characteristics (SA-β-gal, Ki67, clonal expansion) in hMPCs; settings: hMPCs after HERVK activation or 5-AZA treatment
Experimental: Cells seeded on coverslip (Thermo Fisher Scientific) were washed by PBS, fixed in 4% paraformaldehyde (PFA), permeabilized in 0.4% Triton X-100, blocked by 10% donkey serum. The coverslip was incubated with primary antibody at 4° C. in blocking buffer, then incubated with secondary antibody at room temperature for 1 h. Nucleus was labelled by Hoechst 33342 (Invitrogen).
as §1
For lentivirus transduction, hMPCs were seeded (P0 after treatment) and incubated with lentivirus in the presence of polybrene (Sigma-Aldrich) for 24 h. After two passages, treated cells were used for Ki67 immunofluorescence, SA-β-gal staining and RNA/DNA extraction.
5 thousand cells were seeded in one well of 6-well plate (Corning) cover with gelatin (Sigma), and cultured for about 10 days. Cells were fixed by 4% PFA, stained by 10% crystal violet for 30 min. Relative cell integral density was calculated by ImageJ software.
Cells were fixed by a buffer containing 2% (w/v) formaldehyde and 0.2% (w/v) glutaraldehyde for 5 min, and treated by staining buffer containing 1 mg/mL X-gal at 37° C. overnight.
In particular, relative percentage of cells positive for senescence associated β-galactosidase (SA-β-gal) was increased, the number of Ki67 positive cells was decreased and the clonal expansion ability was reduced (as shown by FIGS. 12C-12E).

Nc1ncn([C@@H]2O[C@H](CO)[C@@H](O)[C@H]2O)c(=O)n1 [5-AZA, 5-azacytidine]
5 mC occupation in HERVK-LTR5HS (HERVK-LTR5HS): reduce; also recorded: decrease | expression of SASP cytokine (cGAS-STING pathway): up-regulated | level of phosphorylated IRF3 (cGAS-STING pathway): increased | level of phosphorylated RelA (cGAS-STING pathway): increased | level of phosphorylated TBK1 (cGAS-STING pathway): increased | senescence marker p16INK4a level (HERVK): increased | HERVK RNA level (HERVK; vs untreated or non-targeting sgRNA control): increase | SA-β-gal positive cells (hMPCs): increased | cell senescence (overall) (hMPCs): caused premature senescence; also recorded: induces senescence | clonal expansion ability (hMPCs): reduced | number of Ki67 positive cells (hMPCs): decreased
